Measured values reported in US20130310379A1, “MODULATORS OF METHYL MODIFYING ENZYMES, COMPOSITIONS AND USES THEREOF” (CONSTELLATION PHARMACEUTICALS, priority 2010, published 2013).

These compounds were tested against EZH2 (Homo sapiens, UniProt Q15910) (assay: EZH2 assay: rPRC2 with biotinylated oligonucleosome substrates and 3H SAM, FlashPlate scintillation counting, IC50). Conditions: rPRC2, biotinylated oligonucleosome substrates, 3H SAM; read-out: EZH2 IC50.
Assay type: biochemical
Procedure, shortened: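 rPRC2 (2 nM EZH2) pre-incubated 20 min with compound (80 to 0.16 uM, ten 2-fold steps), then 60 min reaction with 0.2 uM 3H SAM, 0.2 uM biotinylated oligonucleosomes, 3.6 uM H3K27me3 peptide in Tris pH 8.5. SAH/EDTA quench; 4-parameter IC50 fit.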

Sequence of EZH2 (Q15910 whole entry): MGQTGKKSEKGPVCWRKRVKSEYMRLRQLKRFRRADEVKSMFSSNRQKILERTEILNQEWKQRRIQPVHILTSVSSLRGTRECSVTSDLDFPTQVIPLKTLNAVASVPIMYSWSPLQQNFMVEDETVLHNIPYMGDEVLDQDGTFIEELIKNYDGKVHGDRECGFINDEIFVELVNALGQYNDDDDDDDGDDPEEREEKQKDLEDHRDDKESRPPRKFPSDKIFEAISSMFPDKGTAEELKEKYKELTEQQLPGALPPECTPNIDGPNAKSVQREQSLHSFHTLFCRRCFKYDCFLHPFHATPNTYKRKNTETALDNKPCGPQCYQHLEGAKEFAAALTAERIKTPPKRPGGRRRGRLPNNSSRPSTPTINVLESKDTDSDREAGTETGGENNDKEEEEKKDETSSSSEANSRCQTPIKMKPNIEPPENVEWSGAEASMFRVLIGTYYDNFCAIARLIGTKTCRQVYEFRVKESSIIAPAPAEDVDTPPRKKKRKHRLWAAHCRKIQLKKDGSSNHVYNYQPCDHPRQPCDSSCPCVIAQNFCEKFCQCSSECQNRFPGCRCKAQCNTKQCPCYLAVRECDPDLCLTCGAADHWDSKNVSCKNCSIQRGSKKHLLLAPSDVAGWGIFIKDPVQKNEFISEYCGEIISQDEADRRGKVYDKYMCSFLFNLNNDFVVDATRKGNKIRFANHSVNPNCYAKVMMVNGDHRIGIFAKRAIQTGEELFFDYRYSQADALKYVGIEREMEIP
Sequence of EZH2 (O75530 whole entry partner): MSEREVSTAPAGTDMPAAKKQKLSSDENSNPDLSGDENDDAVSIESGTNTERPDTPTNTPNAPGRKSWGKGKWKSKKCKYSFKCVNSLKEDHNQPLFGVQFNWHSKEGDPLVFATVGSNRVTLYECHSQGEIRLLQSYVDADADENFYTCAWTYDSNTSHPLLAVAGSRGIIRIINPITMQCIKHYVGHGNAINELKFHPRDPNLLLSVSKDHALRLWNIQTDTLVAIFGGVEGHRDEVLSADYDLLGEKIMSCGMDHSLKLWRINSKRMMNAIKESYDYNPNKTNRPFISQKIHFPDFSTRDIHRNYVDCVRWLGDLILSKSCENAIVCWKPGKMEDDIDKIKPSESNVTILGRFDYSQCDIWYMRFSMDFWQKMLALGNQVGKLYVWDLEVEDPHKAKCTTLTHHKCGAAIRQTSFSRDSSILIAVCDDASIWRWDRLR
Sequence of EZH2 (Q15022 whole entry partner): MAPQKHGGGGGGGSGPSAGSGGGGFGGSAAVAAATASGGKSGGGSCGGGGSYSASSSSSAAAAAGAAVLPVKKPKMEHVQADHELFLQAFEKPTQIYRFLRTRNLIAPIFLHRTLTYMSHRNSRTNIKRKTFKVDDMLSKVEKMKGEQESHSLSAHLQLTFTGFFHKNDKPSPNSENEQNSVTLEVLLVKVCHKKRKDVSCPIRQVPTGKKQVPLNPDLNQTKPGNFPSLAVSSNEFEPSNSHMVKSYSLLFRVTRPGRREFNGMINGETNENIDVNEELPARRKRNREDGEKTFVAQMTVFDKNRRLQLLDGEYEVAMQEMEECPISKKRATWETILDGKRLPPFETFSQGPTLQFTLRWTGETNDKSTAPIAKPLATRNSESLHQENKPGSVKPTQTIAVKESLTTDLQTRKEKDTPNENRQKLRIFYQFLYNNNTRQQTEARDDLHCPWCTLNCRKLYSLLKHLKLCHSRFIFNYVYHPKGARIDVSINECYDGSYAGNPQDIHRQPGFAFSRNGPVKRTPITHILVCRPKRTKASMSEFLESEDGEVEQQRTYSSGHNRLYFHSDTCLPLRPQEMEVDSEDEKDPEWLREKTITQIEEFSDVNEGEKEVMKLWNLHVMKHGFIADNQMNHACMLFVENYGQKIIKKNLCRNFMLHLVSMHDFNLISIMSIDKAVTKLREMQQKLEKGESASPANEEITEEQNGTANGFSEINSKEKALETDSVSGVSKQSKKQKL

Structure (SMILES)	IC50 [µM]
CC1(C)CC(NC(=O)c2ccc(COc3cccc(-c4ccc(N)cc4)c3)cc2)CC(C)(C)N1 [Compound I-155]	20 to 80
CC1(C)CC(NC(=O)c2ccc(Oc3cccc4c(N)nccc34)cc2)CC(C)(C)N1 [Compound I-316]	20 to 80
CN(C(=O)c1ccc(COc2cccc(Br)c2)cc1)C1CCNCC1 [Compound I-126]	> 80
Cc1cccc(C)c1Oc1ccc(C(=O)NC2CC(C)(C)NC(C)(C)C2)cc1 [Compound I-69]	> 80
CC1(C)CC(NC(=O)c2ccc(Oc3ccccc3C#N)c(C#N)c2)CC(C)(C)N1 [Compound I-264]	< 5
CC1(C)CC(NC(=O)c2ccc(Oc3ccccc3C(=O)NCc3ccccc3)c(Cl)c2)CC(C)(C)N1 [Compound I-286]	5 to 20
CN(C)C(=O)c1ccccc1Oc1ccc(C(=O)NC2CC(C)(C)NC(C)(C)C2)cc1Cl [Compound I-246]	20 to 80
CC1(C)CC(NC(=O)c2ccc(Oc3ccccc3)nc2)CC(C)(C)N1 [Compound I-64, 6-Phenoxy-N-(2,2,6,6-tetramethylpiperidin-4-yl)nicotinamide]	20 to 80
CN(C)Cc1cccc(Oc2ccc(C(=O)NC3CC(C)(C)NC(C)(C)C3)cc2)c1 [Compound I-247]	20 to 80
COc1cccc(Oc2ccc(C(=O)NC3CC(C)(C)NC(C)(C)C3)cc2)c1 [Compound I-71]	> 80
CC(C)CNC(=O)c1ccc(Oc2ccccc2)cc1 [Compound I-139]	> 80
CC1(C)CC(NC(=O)c2ccc(Oc3ccccc3C#N)c(-c3cccnc3)c2)CC(C)(C)N1 [Compound I-211]	< 5
O=C(NC1CCN(C(=O)c2ccccc2)CC1)c1ccc(Oc2ccccc2)cc1 [Compound I-116]	> 80
CC1(C)CC(NC(=O)c2ccc(Nc3ccccc3)cc2)CC(C)(C)N1 [Compound I-107]	> 80
Cc1ccc(OCc2ccc(C(=O)NC3CC(C)(C)NC(C)(C)C3)cc2)nc1 [Compound I-70]	> 80
Cc1cncc(-c2cccc(OCc3ccc(C(=O)NC4CC(C)(C)NC(C)(C)C4)cc3)c2)c1 [Compound I-13, 4-((3-(5-methylpyridin-3-yl)phenoxy)methyl)-N-(2,2,6,6-tetramethylpiperidin-4-yl)benzamide]	5 to 20
CNc1cccc(OCc2ccc(C(=O)NC3CC(C)(C)NC(C)(C)C3)cc2)n1 [Compound I-121, 4-(((6-(methylamino)pyridin-2-yl)oxy)methyl)-N-(2,2,6,6-tetramethylpiperidin-4-yl)benzamide]	> 80
CC1(C)CC(NC(=O)c2ccc(Oc3ccccc3C#N)c(C3CCCC3)c2)CC(C)(C)N1 [Compound I-238]	5 to 20
CC1(C)CC(NC(=O)c2ccc(Oc3cccnc3C#N)c(Br)c2)CC(C)(C)N1 [Compound I-219]	< 5
COc1ccc(Oc2ccc(C(=O)NC3CC(C)(C)NC(C)(C)C3)cc2)c(C#N)c1 [Compound I-177]	> 80
CCc1cccc(Oc2ccc(C(=O)NC3CC(C)(C)NC(C)(C)C3)cc2Cl)c1C#N [Compound I-310]	< 5
COc1ccc(Oc2ccc(C(=O)NC3CC(C)(C)NC(C)(C)C3)cc2)c(C(=O)O)c1 [Compound I-120, 2-(4-(2,2,6,6-tetramethylpiperidin-4-ylcarbamoyl)phenoxy)-5-methoxy benzoic acid]	> 80

Structure (SMILES)	IC50 [µM]
CC1(C)CC(NC(=O)c2ccc(COc3cccc(-c4cn[nH]c4)c3)cc2)CC(C)(C)N1 [Compound I-12]	5 to 20
Cc1cccc(OCc2ccc(C(=O)NC3CC(C)(C)NC(C)(C)C3)cc2)c1 [Compound I-46, N-(2,2,6,6-tetramethylpiperidin-4-yl)-4-(m-tolyloxymethyl)benzamide]	20 to 80
Cc1ccc(Oc2ccc(C(=O)NC3CC(C)(C)NC(C)(C)C3)cc2)cn1 [Compound I-89]	> 80
CC1(C)CC(NC(=O)c2ccc(Oc3ccccc3OCc3ccccc3)cc2)CC(C)(C)N1 [Compound I-152]	< 5
Cc1cc(C(=O)NC2CC(C)(C)NC(C)(C)C2)ccc1Oc1cccc(C2CC2)c1C#N [Compound I-263]	< 5
CC1(C)CC(NC(=O)c2ccc(Oc3ncccc3C(N)=O)cc2)CC(C)(C)N1 [Compound I-103, 2-(4-(2,2,6,6-Tetramethylpiperidin-4-ylcarbamoyl)phenoxy)nicotinamide]	> 80
CC1(C)CC(NC(=O)c2ccc(Oc3cccc(O)c3)cc2)CC(C)(C)N1 [Compound I-29]	20 to 80
CNCc1ccccc1Oc1ccc(C(=O)NC2CC(C)(C)NC(C)(C)C2)cc1 [Compound I-274]	> 80
CC1(C)CC(NC(=O)c2ccc(Oc3ccccc3)cc2)CC(C)(C)N1 [Compound I-52]	20 to 80
CC1(C)CC(NC(=O)c2ccc(Oc3ncccn3)cc2)CC(C)(C)N1 [Compound I-79]	> 80
CN1CCC(NC(=O)c2ccc(Oc3ccccc3)cc2)CC1 [Compound I-113]	> 80
C#Cc1ccccc1Oc1ccc(C(=O)NC2CC(C)(C)NC(C)(C)C2)cc1 [Compound I-224]	5 to 20
CC1(C)CC(NC(=O)c2ccc(Oc3c(Cl)cccc3C#N)cc2)CC(C)(C)N1 [Compound I-244]	20 to 80
CC1(C)CC(NC(=O)c2ccc(Oc3ccccc3OCc3cccnc3)cc2)CC(C)(C)N1 [Compound I-232]	20 to 80
CC1(C)CC(NC(=O)c2ccc(C(=O)Nc3cccc(Br)c3)cc2)CC(C)(C)N1 [Compound I-161]	> 80
CC1(C)CC(NC(=O)c2ccc(Oc3ccc(F)cc3C#N)cc2)CC(C)(C)N1 [Compound I-157]	20 to 80
CC1(C)CC(NC(=O)c2ccc(COc3cccc(F)c3)cc2)CC(C)(C)N1 [Compound I-59]	20 to 80
CC1(C)CC(NC(=O)c2ccc(COc3cccc(-c4ccc(O)cc4)c3)cc2)CC(C)(C)N1 [Compound I-38]	20 to 80
CC1(C)CC(NC(=O)c2ccc(Oc3cccnc3C#N)cc2)CC(C)(C)N1 [Compound I-10]	5 to 20
CC1(C)CC(NC(=O)c2ccc(Oc3ccccc3)cc2O)CC(C)(C)N1 [Compound I-122]	> 80
COc1cncc(-c2ccccc2Oc2ccc(C(=O)NC3CC(C)(C)NC(C)(C)C3)cc2Cl)c1 [Compound I-288]	< 5

Further lines, results first:

IC50 [µM]	Structure (SMILES)
20 to 80	CC1(C)CC(NC(=O)c2ccc(N3C(=O)COc4ccccc43)c(Cl)c2)CC(C)(C)N1 [Compound I-522]
< 5	Cc1cc(C(=O)NC2CC(C)(C)NC(C)(C)C2)ccc1Oc1cccc(CC#N)c1 [Compound I-345]
20 to 80	CC1(C)CC(NC(=O)c2ccc(Oc3ccncc3)c(Br)c2)CC(C)(C)N1 [Compound I-318]
20 to 80	CC1(C)CC(NC(=O)c2ccc(Oc3cccc(-c4ccnnc4)c3C#N)c(Cl)c2)CC(=O)N1 (stereo not shown) [Compound I-519]
20 to 80	CC1(C)CC(NC(=O)c2ccc(Oc3cccc4c[nH]c(=O)cc34)cc2)CC(C)(C)N1 [Compound I-370]
> 80	N#Cc1ccccc1Oc1ccc(C(=O)NC2CCN(c3cccnc3)CC2)cc1Cl [Compound I-368]
< 5	COc1ccc(-c2cccc(Oc3ccc(C(=O)NC4CC(C)(C)NC(C)(C)C4)cc3Cl)c2C#N)cn1 [Compound I-366]
< 5	CC1(C)CC(NC(=O)c2ccc(Oc3cccc(-c4ccc(C#N)cc4)c3C#N)c(Cl)c2)CC(C)(C)N1 [Compound I-506]
< 5	CC1(C)CC(NC(=O)c2ccc(Oc3cccc(-c4ccc[nH]4)c3C#N)c(Cl)c2)CC(C)(C)N1 [Compound I-337]
> 80	CC1(C)CNCCC1NC(=O)c1ccc(Oc2ccccc2C#N)c(Cl)c1 (stereo not shown) [Compound I-406]
< 5	CC1CC(NC(=O)c2ccc(Oc3cccc(-c4ccnnc4)c3C#N)c(Cl)c2)CC(C)(C)N1 (stereo not shown) [Compound I-478]
5 to 20	CC1(C)CC(NC(=O)c2ccc(Oc3cccc(-c4ccnnc4)c3C#N)c(Cl)c2)CC(C)(C)S1 [Compound I-517]
20 to 80	CC1(C)CC(NC(=O)c2ccc(-n3ccc4cc(O)ccc43)c(Cl)c2)CC(C)(C)N1 [Compound I-494]
> 80	N#Cc1ccccc1Oc1ccc(C(=O)NC2CCNC(=O)C2)cc1Cl (stereo not shown) [Compound I-403]
> 80	CC1(C)CC(NC(=O)c2ccc(Oc3cccc4c(=O)[nH]ccc34)cc2)CC(C)(C)N1 [Compound I-317]
5 to 20	CC1(C)CC(NC(=O)c2ccc(-c3ccc4ccncc4c3)c(Cl)c2)CC(C)(C)N1 [Compound I-377]
> 80	CC1(C)CC(NC(=O)c2ccc(OCC3CCCCN3)c(Cl)c2)CC(C)(C)N1 (stereo not shown) [Compound I-450]
5 to 20	CC1(C)CC(C(=O)Nc2ccc(Oc3cccc(-c4cn[nH]c4)c3C#N)c(Cl)c2)CC(C)(C)N1 [Compound I-449]
> 80	CC1(C)CC(NC(=O)N2CCC(Oc3ccccc3)C2)CC(C)(C)N1 (stereo not shown) [Compound I-466]
> 80	CC1(C)CC(NC(=O)c2ccc(Oc3ccccc3C#N)c(Cl)c2)CC(C)(C)C1 [Compound I-433]
< 5	CC1(C)CC(NC(=O)c2ccc(Oc3ccccc3C#N)c(Cl)c2)CC(C)(C)N1CCCO [Compound I-489, 3-chloro-4-(2-cyanophenoxy)-N-(1-(3-hydroxypropyl)-2,2,6,6-tetramethylpiperidin-4-yl)benzamide]
5 to 20	CC1(C)CC(NC(=O)c2ccc(Oc3ccncc3C#N)c(Cl)c2)CC(C)(C)N1 [Compound I-349]
< 5	Cc1cc(C(=O)NC2CC(C)(C)NC(C)(C)C2)ccc1Oc1cccc(-c2ccnnc2)c1C#N [Compound I-508]
> 80	COc1ncccc1-c1ccccc1Oc1ccc(C(=O)NC2CC(C)(C)NC(C)(C)C2)cc1Cl [Compound I-321]
< 5	COCCNC(=O)CCc1cccc(Oc2ccc(C(=O)NC3CC(C)(C)NC(C)(C)C3)cc2Cl)c1C#N [Compound I-554]
< 5	CNc1cccc(Oc2ccc(C(=O)NC3CC(C)(C)NC(C)(C)C3)cc2Cl)c1C#N [Compound I-348]
> 80	N#Cc1ccccc1Oc1ccc(C(=O)N[C@H]2C[C@H]3CC[C@@H](C2)N3)cc1Cl [Compound I-408]
